Experiments:
[1] = biological target: Mast/stem cell growth factor receptor Kit (Homo sapiens, UniProt P10721); test: Selectivity interaction (KinomeScan (DiscoverX)) EUB0001079a KIT; settings: at 1 µM
[2] = tested on: Tyrosine-protein kinase ABL1 (Homo sapiens), P00519 [Q252H]; test: Selectivity interaction (KinomeScan (DiscoverX)) EUB0001079a ABL1; settings: at 1 µM
[3] = biological target: Histone-lysine N-methyltransferase 2A (Homo sapiens) (UniProt Q03164); test: Selectivity interaction (Transferase panel (protein, RNA, and DNA methyltransferases. and EP300 (acetyltransferase))) EUB0000270b MLL
[4] = biological target: T1, Serine/threonine-protein kinase LATS1 (Homo sapiens) (UniProt O95835); test: Selectivity interaction (ActivX KiNativ screen (kinase selectivity in THP-1 cell lysates)) EUB0000639a LATS1; assay type: subcellular; settings: lysate, at 0.04 µM
T1 sequence (whole entry): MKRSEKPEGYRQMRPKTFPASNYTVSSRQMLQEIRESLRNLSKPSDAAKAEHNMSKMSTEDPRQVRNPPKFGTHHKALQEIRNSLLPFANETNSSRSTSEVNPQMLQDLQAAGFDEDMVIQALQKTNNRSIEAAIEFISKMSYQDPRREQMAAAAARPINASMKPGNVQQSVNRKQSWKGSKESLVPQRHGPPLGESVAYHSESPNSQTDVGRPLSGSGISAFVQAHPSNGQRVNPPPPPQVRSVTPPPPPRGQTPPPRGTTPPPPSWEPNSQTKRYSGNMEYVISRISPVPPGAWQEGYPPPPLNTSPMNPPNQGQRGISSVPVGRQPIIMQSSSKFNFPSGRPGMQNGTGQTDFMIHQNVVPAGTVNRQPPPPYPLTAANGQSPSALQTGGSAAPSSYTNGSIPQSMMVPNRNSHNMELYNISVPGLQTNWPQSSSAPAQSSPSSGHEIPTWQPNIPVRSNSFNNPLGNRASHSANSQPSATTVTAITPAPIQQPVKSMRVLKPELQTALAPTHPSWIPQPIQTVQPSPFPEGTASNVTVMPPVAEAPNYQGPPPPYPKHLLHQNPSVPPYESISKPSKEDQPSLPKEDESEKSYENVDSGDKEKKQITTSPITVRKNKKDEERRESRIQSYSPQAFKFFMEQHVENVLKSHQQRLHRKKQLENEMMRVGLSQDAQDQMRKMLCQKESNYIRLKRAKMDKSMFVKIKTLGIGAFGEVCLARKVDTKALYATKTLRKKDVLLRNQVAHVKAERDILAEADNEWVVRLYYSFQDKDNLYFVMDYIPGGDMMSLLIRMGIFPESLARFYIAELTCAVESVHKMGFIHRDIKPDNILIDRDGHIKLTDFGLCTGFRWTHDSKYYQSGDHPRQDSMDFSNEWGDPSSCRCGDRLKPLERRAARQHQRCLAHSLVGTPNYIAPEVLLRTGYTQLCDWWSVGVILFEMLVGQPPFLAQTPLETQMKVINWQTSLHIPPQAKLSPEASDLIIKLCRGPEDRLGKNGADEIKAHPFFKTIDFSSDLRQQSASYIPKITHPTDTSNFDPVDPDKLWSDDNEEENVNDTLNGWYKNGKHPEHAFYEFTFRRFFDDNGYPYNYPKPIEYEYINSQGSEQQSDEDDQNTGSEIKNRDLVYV

[5] = biological target: T2, Mitogen-activated protein kinase kinase kinase 2 (Homo sapiens) (UniProt Q9Y2U5); test: Selectivity interaction (Kinase panel (Invitrogen)) EUB0000639a MAP3K2; settings: at 200 nM
T2 sequence (whole entry): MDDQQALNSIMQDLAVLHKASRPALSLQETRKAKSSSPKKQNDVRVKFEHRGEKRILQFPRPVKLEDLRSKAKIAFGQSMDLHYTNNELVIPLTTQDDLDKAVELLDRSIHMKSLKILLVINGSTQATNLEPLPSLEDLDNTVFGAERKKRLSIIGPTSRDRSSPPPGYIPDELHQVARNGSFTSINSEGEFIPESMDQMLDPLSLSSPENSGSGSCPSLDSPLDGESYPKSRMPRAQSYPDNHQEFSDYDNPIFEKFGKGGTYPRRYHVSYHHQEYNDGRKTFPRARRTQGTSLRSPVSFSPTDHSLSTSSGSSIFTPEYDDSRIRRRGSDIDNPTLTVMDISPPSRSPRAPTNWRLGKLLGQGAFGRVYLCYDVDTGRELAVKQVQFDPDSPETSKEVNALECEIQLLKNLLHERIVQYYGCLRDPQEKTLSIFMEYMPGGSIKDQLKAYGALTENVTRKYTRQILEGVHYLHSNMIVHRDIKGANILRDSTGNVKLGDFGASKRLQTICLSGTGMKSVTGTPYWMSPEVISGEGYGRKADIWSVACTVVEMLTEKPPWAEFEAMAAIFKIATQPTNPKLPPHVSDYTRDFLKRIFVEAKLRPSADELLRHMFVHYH

[6] = biological target: Non-receptor tyrosine-protein kinase TYK2 (Homo sapiens, UniProt P29597); test: Selectivity interaction (Kinase panel (Invitrogen)) EUB0000639a TYK2; settings: at 200 nM
Chain of Non-receptor tyrosine-protein kinase TYK2 (P29597 whole entry): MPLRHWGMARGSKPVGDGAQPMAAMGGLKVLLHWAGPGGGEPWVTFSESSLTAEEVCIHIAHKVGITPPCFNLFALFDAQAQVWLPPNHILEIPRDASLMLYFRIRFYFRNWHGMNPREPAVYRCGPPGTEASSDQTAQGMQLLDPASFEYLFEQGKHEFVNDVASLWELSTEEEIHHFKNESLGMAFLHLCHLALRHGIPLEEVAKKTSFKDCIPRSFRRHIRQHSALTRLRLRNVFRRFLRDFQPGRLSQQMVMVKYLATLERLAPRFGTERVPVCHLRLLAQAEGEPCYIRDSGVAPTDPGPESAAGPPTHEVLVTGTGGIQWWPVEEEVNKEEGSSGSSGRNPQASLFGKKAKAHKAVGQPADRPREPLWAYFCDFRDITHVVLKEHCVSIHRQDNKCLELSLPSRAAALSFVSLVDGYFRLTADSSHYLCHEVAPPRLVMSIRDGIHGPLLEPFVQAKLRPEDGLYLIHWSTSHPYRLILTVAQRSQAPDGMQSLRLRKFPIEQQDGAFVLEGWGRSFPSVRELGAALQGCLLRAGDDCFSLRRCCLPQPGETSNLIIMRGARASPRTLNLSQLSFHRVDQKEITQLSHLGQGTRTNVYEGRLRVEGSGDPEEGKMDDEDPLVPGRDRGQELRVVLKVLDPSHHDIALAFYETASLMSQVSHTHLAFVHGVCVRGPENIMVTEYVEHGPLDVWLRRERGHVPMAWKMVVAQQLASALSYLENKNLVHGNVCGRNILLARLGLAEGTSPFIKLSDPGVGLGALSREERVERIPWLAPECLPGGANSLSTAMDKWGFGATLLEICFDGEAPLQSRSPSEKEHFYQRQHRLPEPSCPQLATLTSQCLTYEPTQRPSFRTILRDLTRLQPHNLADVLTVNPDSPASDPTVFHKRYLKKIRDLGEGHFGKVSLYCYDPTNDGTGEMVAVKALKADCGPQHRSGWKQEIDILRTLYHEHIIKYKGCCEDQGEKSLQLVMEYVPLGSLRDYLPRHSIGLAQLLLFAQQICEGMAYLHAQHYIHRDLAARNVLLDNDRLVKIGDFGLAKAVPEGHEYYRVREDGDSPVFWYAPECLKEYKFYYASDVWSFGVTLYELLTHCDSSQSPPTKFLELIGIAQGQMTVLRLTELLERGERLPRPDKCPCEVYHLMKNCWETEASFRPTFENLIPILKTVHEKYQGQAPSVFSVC

Chain of Histone-lysine N-methyltransferase 2A (Homo sapiens) (Q03164 1-2718 limits assumed): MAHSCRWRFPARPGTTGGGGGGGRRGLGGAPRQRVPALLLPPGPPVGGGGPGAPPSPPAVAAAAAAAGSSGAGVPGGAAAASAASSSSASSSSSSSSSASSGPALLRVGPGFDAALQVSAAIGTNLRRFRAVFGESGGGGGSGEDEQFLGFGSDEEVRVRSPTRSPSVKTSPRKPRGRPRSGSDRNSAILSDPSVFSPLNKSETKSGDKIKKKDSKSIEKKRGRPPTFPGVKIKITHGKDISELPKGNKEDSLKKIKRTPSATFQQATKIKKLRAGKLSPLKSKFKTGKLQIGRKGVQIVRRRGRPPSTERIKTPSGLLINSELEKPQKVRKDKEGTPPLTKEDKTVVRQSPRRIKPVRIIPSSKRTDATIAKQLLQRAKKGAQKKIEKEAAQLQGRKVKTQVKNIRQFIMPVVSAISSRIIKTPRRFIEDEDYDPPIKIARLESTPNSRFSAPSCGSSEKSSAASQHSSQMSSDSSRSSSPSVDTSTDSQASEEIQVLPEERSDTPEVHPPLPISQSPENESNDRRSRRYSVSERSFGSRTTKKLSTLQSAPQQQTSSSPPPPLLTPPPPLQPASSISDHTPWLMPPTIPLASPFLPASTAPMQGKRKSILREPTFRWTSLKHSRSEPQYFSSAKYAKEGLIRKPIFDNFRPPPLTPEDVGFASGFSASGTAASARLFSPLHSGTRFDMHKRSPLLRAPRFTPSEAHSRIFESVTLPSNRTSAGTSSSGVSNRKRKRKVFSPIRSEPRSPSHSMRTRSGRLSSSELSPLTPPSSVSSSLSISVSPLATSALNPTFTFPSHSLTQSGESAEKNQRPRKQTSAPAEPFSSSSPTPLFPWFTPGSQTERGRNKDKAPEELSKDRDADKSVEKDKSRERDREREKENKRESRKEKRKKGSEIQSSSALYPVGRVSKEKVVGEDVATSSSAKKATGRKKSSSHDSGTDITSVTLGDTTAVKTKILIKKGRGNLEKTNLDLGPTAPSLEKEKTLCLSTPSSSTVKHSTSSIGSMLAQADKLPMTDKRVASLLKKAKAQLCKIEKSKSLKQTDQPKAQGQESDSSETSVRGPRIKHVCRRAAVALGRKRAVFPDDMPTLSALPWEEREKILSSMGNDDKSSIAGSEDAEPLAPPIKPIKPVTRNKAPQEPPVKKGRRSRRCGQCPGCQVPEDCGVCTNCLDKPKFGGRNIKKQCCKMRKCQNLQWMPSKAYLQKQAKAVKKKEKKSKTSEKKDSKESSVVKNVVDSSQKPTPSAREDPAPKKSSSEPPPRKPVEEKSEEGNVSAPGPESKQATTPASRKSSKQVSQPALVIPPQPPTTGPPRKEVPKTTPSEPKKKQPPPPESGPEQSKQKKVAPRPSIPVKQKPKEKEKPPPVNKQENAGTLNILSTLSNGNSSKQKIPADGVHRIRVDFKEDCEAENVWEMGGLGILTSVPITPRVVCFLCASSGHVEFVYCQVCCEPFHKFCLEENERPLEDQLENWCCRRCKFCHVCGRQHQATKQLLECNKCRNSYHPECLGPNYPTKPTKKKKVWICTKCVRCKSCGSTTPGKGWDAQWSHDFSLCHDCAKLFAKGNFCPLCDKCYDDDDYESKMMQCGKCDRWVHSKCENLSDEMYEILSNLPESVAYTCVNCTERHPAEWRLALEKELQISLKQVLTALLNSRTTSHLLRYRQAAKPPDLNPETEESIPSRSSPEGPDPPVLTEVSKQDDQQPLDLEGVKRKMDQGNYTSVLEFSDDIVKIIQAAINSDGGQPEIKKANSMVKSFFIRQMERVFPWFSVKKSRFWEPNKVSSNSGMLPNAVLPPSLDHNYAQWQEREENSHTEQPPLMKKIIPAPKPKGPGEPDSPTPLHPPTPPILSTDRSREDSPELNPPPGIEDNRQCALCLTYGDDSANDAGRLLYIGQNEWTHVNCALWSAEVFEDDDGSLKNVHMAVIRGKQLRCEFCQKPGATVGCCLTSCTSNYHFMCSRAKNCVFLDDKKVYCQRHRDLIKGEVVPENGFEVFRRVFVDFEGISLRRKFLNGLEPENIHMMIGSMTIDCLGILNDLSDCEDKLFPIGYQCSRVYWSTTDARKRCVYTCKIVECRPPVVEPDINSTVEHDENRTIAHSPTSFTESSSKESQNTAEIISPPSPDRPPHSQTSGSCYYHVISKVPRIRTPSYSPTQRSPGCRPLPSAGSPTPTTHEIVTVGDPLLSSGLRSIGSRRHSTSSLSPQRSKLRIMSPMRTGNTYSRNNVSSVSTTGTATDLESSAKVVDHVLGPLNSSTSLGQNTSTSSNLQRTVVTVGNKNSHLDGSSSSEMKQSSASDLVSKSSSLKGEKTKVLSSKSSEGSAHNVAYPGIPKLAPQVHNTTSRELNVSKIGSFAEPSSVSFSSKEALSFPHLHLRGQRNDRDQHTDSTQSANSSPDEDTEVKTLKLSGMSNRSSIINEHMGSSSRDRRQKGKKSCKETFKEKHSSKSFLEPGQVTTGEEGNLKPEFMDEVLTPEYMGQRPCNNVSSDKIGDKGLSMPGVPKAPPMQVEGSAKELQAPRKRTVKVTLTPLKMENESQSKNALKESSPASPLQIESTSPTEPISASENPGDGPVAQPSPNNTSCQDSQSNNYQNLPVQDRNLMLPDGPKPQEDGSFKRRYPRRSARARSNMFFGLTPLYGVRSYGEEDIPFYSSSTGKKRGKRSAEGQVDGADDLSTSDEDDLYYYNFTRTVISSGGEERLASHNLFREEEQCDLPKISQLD
Chain of Histone-lysine N-methyltransferase 2A (Homo sapiens) (Q03164 2719-3969 limits assumed): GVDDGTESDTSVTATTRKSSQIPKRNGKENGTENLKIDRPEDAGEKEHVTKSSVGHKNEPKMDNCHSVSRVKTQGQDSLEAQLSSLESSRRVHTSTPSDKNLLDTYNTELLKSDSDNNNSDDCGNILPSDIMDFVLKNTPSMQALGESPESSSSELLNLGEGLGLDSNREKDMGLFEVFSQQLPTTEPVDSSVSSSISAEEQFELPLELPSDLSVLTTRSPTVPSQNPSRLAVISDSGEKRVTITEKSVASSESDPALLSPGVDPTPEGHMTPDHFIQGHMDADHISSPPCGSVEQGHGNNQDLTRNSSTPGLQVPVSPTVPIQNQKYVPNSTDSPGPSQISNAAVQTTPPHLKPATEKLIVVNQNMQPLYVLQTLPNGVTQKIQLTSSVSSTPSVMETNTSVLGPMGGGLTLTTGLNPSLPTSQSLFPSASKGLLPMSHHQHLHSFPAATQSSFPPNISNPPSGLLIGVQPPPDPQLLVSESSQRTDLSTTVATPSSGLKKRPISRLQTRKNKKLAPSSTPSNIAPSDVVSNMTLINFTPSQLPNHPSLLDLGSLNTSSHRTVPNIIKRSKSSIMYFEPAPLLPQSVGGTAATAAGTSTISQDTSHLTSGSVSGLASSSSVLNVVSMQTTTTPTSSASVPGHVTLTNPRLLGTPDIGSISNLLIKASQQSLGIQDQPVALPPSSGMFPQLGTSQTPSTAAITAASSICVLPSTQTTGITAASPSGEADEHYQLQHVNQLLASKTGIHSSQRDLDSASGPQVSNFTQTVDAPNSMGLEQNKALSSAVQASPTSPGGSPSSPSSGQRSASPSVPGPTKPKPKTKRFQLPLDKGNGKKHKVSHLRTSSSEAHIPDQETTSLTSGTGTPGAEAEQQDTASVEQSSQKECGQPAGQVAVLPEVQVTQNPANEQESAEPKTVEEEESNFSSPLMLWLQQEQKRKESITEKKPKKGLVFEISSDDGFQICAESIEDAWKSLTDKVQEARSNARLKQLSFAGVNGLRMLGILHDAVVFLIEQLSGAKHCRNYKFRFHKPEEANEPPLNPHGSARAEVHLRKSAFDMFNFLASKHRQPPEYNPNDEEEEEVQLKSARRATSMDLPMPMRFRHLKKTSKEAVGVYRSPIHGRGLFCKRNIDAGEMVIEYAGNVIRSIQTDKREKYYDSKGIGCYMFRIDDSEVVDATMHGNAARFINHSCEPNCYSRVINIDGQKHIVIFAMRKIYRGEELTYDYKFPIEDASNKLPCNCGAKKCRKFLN

For `Nc1cnc(N2CCc3cc(S(=O)(=O)Nc4c(F)cc(Cl)cc4F)cc(N4CCCC4=O)c32)nc1` [TP-020n], the % of control [1] was 100% and the % of control [2] was 98%.

With `Cc1cc(CN)cc(C)c1-c1ncn(C)c1-c1cncn1C` the % activity ([3]; at 1 µM) was > 90% and the % activity ([3]; at 10 µM) was > 80%.

Compound `CC[C@@H]1[C@H](F)C(=O)N[C@@H]1COc1nccc2cc(C(N)=O)c(OC)cc12` [ZIMLOVISERTIB] has a % of inhibition [4] of -18.5%, a % of inhibition [5] of -4.03% and a % of inhibition [6] of 5.13%.

Reference: ChEMBL document CHEMBL5465560, “Selectivity Literature for EUbOPEN Chemogenomic Library” (2024)
